What follows are molecules tested against T1, recombinant human 5-HT5A receptor (Homo sapiens, UniProt P47898) (assay: [3H]LSD radioligand binding assay). Conditions: [3H]LSD (approximately 1 nM); membranes from transiently expressed 5-HT5A receptors in HEK-EBNA cells; Ki from IC50 by Cheng-Prussoff equation.
T1 construct: expressed in transfected cells; host or cells: HEK-EBNA (Human Embryonic Kidney-EBNA) cells, transient cDNA expression; membranes
T1 sequence (P47898 whole entry): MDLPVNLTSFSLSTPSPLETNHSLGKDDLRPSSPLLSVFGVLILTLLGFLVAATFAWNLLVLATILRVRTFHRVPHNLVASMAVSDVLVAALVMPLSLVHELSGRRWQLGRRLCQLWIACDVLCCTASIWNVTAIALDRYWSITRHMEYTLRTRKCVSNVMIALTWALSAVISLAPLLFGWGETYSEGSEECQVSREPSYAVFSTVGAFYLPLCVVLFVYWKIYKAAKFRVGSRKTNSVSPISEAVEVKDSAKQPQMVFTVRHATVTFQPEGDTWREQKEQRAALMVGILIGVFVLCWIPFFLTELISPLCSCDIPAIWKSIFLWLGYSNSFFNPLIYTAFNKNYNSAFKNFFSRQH
Method: A [^3H]LSD radioligand binding assay was used to determine the affinity of the compounds for the recombinant human 5-HT5A receptor, in membranes from transiently (cDNA) expressed 5-HT5A receptors in Human Embryonic Kidney-EBNA (HEK-EBNA) cells. Assay buffer consisted of Tris (50 mM) buffer containing 1 mM EGTA, 10 mM MgCl2 (pH 7.4) and 10 μM pargyline. The binding assay was carried out in 96-well-plates in the presence of [^3H]LSD (approximately 1 nM), approximately 2 μg/well of membrane protein, and 0.5 mg of Ysi-poly-1-lysine SPA beads in a final volume of 200 μl of buffer. Non-specific binding was defined using methiothepin 2 μM. Compounds were tested at 10 concentrations. All assays were conducted in duplicate and repeated at least two times. Assay plates were incubated for 120 min at room temperature before centrifugation. Bound ligand was determined using a Packard Topcount scintillation counter. IC50 values were calculated using a non-linear curve fitting program and Ki values calculated using the Cheng-Prussoff equation.
`O=S(=O)(Nc1ccc2nc(N[C@@H]3CCc4ccccc43)ccc2c1)N1CCSCC1` [Example 78, Thiomorpholine-4-sulfonic acid [2-((R)-indan-1-ylamino)-quinolin-6-yl]-amide] gave a Ki of 7 nM.
`COc1cccc2c1C(Nc1ccc3cc(NC(=O)NC4CCN(CCO)CC4)ccc3n1)CC2` (racemic) [Example 189, rac-1-[1-(2-Hydroxy-ethyl)-piperidin-4-yl]-3-[2-(7-methoxy-indan-1-ylamino)-quinolin-6-yl]-urea] was tested, and the Ki was 1.8 nM.
Work on `COc1cccc2c1C(Nc1ccc3cc(NC(=O)NC4CCN(C(C)C)CC4)ccc3n1)CC2` (racemic) [Example 44, rac-1-(1-Isopropyl-piperidin-4-yl)-3-[2-(7-methoxy-indan-1-ylamino)-quinolin-6-yl]-urea] yielded a Ki of 3 nM.
`O=S(=O)(Nc1ccc2nc(N[C@@H]3CCc4ccccc43)ccc2c1)N1CCCC1` [Example 73, Pyrrolidine-1-sulfonic acid [2-((R)-indan-1-ylamino)-quinolin-6-yl]-amide] gave a Ki of 3.2 nM.
`CC(C)N1C2CCCC1CC(NC(=O)Nc1ccc3nc(NC4CCc5ccccc54)ccc3c1)C2` [Example 168, 1-[2-((R)-Indan-1-ylamino)-quinolin-6-yl]-3-((3-exo)-9-isopropyl-9-aza-bicyclo[3.3.1]non-3-yl)-urea] was tested, and the Ki was 7.8 nM.
Molecule `CC(C)N1CCC(NC(=O)Nc2ccc3nc(NC4CCc5cc(F)ccc54)ccc3c2)CC1` (racemic) [Example 115, rac-1-[2-(5-Fluoro-indan-1-ylamino)-quinolin-6-yl]-3-(1-isopropyl-piperidin-4-yl)-urea] has a Ki of 4 nM.
For `CC(C)NC(=O)Nc1ccc2nc(NC3CCc4cc(F)ccc43)ccc2c1` (racemic) [Example 107, rac-1-[2-(5-Fluoro-indan-1-ylamino)-quinolin-6-yl]-3-isopropyl-urea], the Ki was 4.4 nM.
With `COc1cccc2c1C(Nc1ccc3cc(NC(=O)NC4CCN(C(C)C)CC4)ccc3n1)CO2` (racemic) [Example 180, rac-1-(1-Isopropyl-piperidin-4-yl)-3-[2-(4-methoxy-2,3-dihydro-benzofuran-3-ylamino)-quinolin-6-yl]-urea] the Ki was 2.8 nM.
With `COc1cccc2c1C(Nc1ccc3cc(NS(=O)(=O)N4C[C@@H]5C[C@H]4CO5)ccc3n1)CC2` (stereo partly drawn) [Example 148, (1S,4S)-2-Oxa-5-aza-bicyclo[2.2.1]heptane-5-sulfonic acid [2-(7-methoxy-indan-1-ylamino)-quinolin-6-yl]-amide] the Ki was 2.1 nM.
In the case of `COCCNC(=O)Nc1ccc2nc(N[C@@H]3CCc4ccccc43)ccc2c1` [Example 17, 1-[2-((R)-Indan-1-ylamino)-quinolin-6-yl]-3-(2-methoxy-ethyl)-urea], the Ki is reported as 7 nM.
`COc1cccc2c1C(Nc1ccc3cc(NC(=O)N(C)C4CCN(C(C)C)CC4)ccc3n1)CC2` (racemic) [Example 179, rac-1-(1-Isopropyl-piperidin-4-yl)-3-[2-(7-methoxy-indan-1-ylamino)-quinolin-6-yl]-1-methyl-urea] showed a Ki of 7.1 nM.
For `COc1cccc2c1C(Nc1ccc3cc(NC(=O)NC4CCN(CCF)CC4)ccc3n1)CCC2` (racemic) [Example 59, rac-1-[1-(2-Fluoro-ethyl)-piperidin-4-yl]-3-[2-(8-methoxy-1,2,3,4-tetrahydro-naphthalen-1-ylamino)-quinolin-6-yl]-urea], the Ki was 5.9 nM.
`COc1cccc2c1C(Nc1ccc3cc(NS(=O)(=O)N(C)C)ccc3n1)CC2` (racemic) [Example 68, rac-N′-{2-[(7-methoxy-2,3-dihydro-1H-inden-1-yl)amino]quinolin-6-yl}-N,N-dimethylsulfamide] was tested, and the Ki was 2.5 nM.
Work on `O=C(Nc1ccc2nc(N[C@@H]3CCc4ccccc43)ccc2c1)N[C@@H]1C[C@H]2CC[C@@H](C1)N2C1CC1` [Example 99, 1-((3-exo)-8-Cyclopropyl-8-aza-bicyclo[3.2.1]oct-3-yl)-3-[2-((R)-indan-1-ylamino)-quinolin-6-yl]-urea] yielded a Ki of 3.9 nM.
`O=C(Nc1ccc2nc(NC3CCc4cccc(F)c43)ccc2c1)C1CC1` (racemic) [Example 162, rac-Cyclopropanecarboxylic acid [2-(7-fluoro-indan-1-ylamino)-quinolin-6-yl]-amide] was tested, and the Ki was 8.3 nM.
`COc1cccc2c1C(Nc1ccc3cc(NC(=O)NC4CCN(C5CC5)CC4)ccc3n1)CCC2` (racemic) [Example 55, rac-1-(1-Cyclopropyl-piperidin-4-yl)-3-[2-(8-methoxy-1,2,3,4-tetrahydro-naphthalen-1-ylamino)-quinolin-6-yl]-urea] was tested, and the Ki was 9.7 nM.
Molecule `CC(C)N1CCC(NC(=O)Nc2ccc3nc(NC4CCc5ccc(F)cc54)ccc3c2)CC1` (racemic) [Example 155, rac-1-[2-(6-Fluoro-indan-1-ylamino)-quinolin-6-yl]-3-(1-isopropyl-piperidin-4-yl)-urea] has a Ki of 6.3 nM.
Work on `CN(CCNC(=O)Nc1ccc2nc(N[C@@H]3CCc4ccccc43)ccc2c1)C1CC1` [Example 32, 1-[2-(Cyclopropyl-methyl-amino)-ethyl]-3-[2-((R)-indan-1-ylamino)-quinolin-6-yl]-urea] yielded a Ki of 8.2 nM.
`O=C(Nc1ccc2nc(N[C@@H]3CCc4ccccc43)ccc2c1)NC1CCOCC1` [Example 19, 1-[2-((R)-Indan-1-ylamino)-quinolin-6-yl]-3-(tetrahydro-pyran-4-yl)-urea] was tested, and the Ki was 4 nM.
`COc1cccc2c1C(Nc1ccc3cc(NC(=O)C4CC4)ccc3n1)CO2` (racemic) [Example 195, rac-Cyclopropanecarboxylic acid [2-(4-methoxy-2,3-dihydro-benzofuran-3-ylamino)-quinolin-6-yl]-amide] showed a Ki of 7.3 nM.
In the case of `COc1cccc2c1C(Nc1ccc3cc(NC(=O)NC4CCN(C5CC5)CC4)ccc3n1)CC2` (racemic) [Example 53, rac-1-(1-Cyclopropyl-piperidin-4-yl)-3-[2-(7-methoxy-indan-1-ylamino)-quinolin-6-yl]-urea], the Ki is reported as 3.1 nM.
Molecule `COc1cccc2c1C(Nc1ccc3cc(NC(=O)NC(C)C)ccc3n1)CC2` (single isomer, unassigned; (-)) [Example 13, (−)-1-Isopropyl-3-[2-(7-methoxy-indan-1-ylamino)-quinolin-6-yl]-urea] has a Ki of 0.9 nM.
`CN1[C@@H]2CC[C@H]1C[C@H](NC(=O)Nc1ccc3nc(N[C@@H]4CCc5ccccc54)ccc3c1)C2` [Example 101, 1-[2-((R)-Indan-1-ylamino)-quinolin-6-yl]-3-((3-exo)-8-methyl-8-aza-bicyclo[3.2.1]oct-3-yl)-urea] was tested, and the Ki was 3.7 nM.
`CC(C)N=C(Nc1ccc2nc(N[C@@H]3CCc4ccccc43)ccc2c1)NC(C)C` [Example 166, N-[2-((R)-Indan-1-ylamino)-quinolin-6-yl]-N′,N″-diisopropyl-guanidine] showed a Ki of 33.7 nM.
Work on `CSCCN1CCC(NC(=O)Nc2ccc3nc(N[C@@H]4CCc5ccccc54)ccc3c2)CC1` [Example 48, 1-[2-((R)-Indan-1-ylamino)-quinolin-6-yl]-3-[1-(2-methylsulfanyl-ethyl)-piperidin-4-yl]-urea] yielded a Ki of 7.7 nM.
In the case of `NC(=O)Nc1ccc2nc(N[C@@H]3CCc4ccccc43)ccc2c1` [Example 9, [2-((R)-Indan-1-ylamino)-quinolin-6-yl]-urea], the Ki is reported as 2.9 nM.
For `COc1cccc2c1C(Nc1ccc3cc(NC(=O)NC4CC5CCCC(C4)N5C)ccc3n1)CC2` (racemic) [Example 50, rac-1-[2-(7-Methoxy-indan-1-ylamino)-quinolin-6-yl]-(9-methyl-9-aza-bicyclo[3.3.1]non-3-yl)-urea], the Ki was 5.2 nM.
`CC(C)(C)NC(=O)Nc1ccc2nc(N[C@@H]3CCc4ccccc43)ccc2c1` [Example 8, 1-tert-Butyl-3-[2-((R)-indan-1-ylamino)-quinolin-6-yl]-urea] gave a Ki of 10.9 nM.
`CN(C)S(=O)(=O)Nc1ccc2nc(N[C@@H]3CCc4ccccc43)ccc2c1` [Example 66, N′-{2-[(1R)-2,3-dihydro-1H-inden-1-ylamino]quinolin-6-yl}-N,N-dimethylsulfamide] showed a Ki of 5.6 nM.
For `O=S(=O)(Nc1ccc2nc(N[C@@H]3CCc4ccccc43)ccc2c1)N1CCC2(CC1)OCCO2` [Example 82, 1,4-Dioxa-8-aza-spiro[4.5]decane-8-sulfonic acid [2-((R)-indan-1-ylamino)-quinolin-6-yl]-amide], the Ki was 22.2 nM.
`O=S(=O)(Nc1ccc2nc(N[C@@H]3CCc4ccccc43)ccc2c1)N1CCC(F)(F)C1` [Example 74, 3,3-Difluoro-pyrrolidine-1-sulfonic acid [2-((R)-indan-1-ylamino)-quinolin-6-yl]-amide] was tested, and the Ki was 8.9 nM.
In the case of `CN(C)CCNC(=O)Nc1ccc2nc(N[C@@H]3CCc4ccccc43)ccc2c1` [Example 18, 1-(2-Dimethylamino-ethyl)-3-[2-((R)-indan-1-ylamino)-quinolin-6-yl]-urea], the Ki is reported as 7.3 nM.
In the case of `COCCN1CCC(NC(=O)Nc2ccc3nc(NC4CCc5cccc(OC)c54)ccc3c2)CC1` (racemic) [Example 45, rac-1-[1-(2-Methoxy-ethyl)-piperidin-4-yl]-3-[2-(7-methoxy-indan-1-ylamino)-quinolin-6-yl]-urea], the Ki is reported as 3 nM.
`CC(C)N1[C@@H]2CC[C@H]1C[C@H](NC(=O)Nc1ccc3nc(N[C@@H]4CCc5ccccc54)ccc3c1)C2` [Example 170, 1-[2-((R)-Indan-1-ylamino)-quinolin-6-yl]-3-((3-exo)-8-isopropyl-8-aza-bicyclo[3.2.1]oct-3-yl)-urea] showed a Ki of 7.1 nM.
`O=C(Nc1ccc2nc(N[C@@H]3CCc4ccccc43)ccc2c1)NC1CCN(CCO)CC1` [Example 137, 1-[1-(2-Hydroxy-ethyl)-piperidin-4-yl]-3-[2-((R)-indan-1-ylamino)-quinolin-6-yl]-urea] showed a Ki of 1.7 nM.
